Reference: patent publication US20160206633A1, “dhS1P AND USE OF SAME AS AN ANTICANCER THERAPEUTIC AND IMMUNOMODULATOR” (Penn State Research Foundation, Inc., priority 2013, published 2016)

How the values were obtained:
isolated MDSC-like cells = experiment: Whole-genome RNA microarray of isolated MDSC-like cells after dhS1P; type: cell-based, athymic nude mice; settings: 24 hours dhS1P vs vehicle (BSA); fold-change cut-off 1.2, p-value cut-off 0.05
Protocol: To more closely evaluate the genetic consequences of the dhS1P-induced decrease in isolated MDSC-like cells and the increase in cells bearing the surface markers of B-cells, a RNA microarray analysis was conducted. MDSC-like cells were isolated from MDA-MB-231 tumor-bearing athymic nude mice, exposed for 24 hours to dhS1P or vehicle (BSA), followed by RNA extraction, and a whole-genome microarray was performed. As compared to vehicle-treated MDSC-like cells, dhS1P treatment of isolated MDSC-like cells altered the expression of a variety of genes.
Isolated MDSC-like cells were cultured for 24 hours in media containing BSA, or dhS1P ([…]), before collection and washing via centrifugation. […]
cDNA was purified according to standard procedures. cDNA was in vitro transcribed to synthesize cRNA using a MEGAscript kit (Ambion, Austin, Tex.). Samples were incubated with T7 10× reaction buffer, T7 Enzyme mix and Biotin-NTP mix at 37° C. for 14 hours. cRNA was purified according to instructions, and the yield was measured using a NanoDrop ND-1000 (NanoDrop Products, Wilmington, Del.). […] BeadChips were dried by centrifugation at 275×g for 4 minutes and subsequently scanned using a BeadArray Reader. […]

[1] = test system: sphingolipids in tumor and serum; experiment: Lipidomics (LC-MS3) of sphingolipids in tumors and serum of treated tumor-bearing mice; type: in vivo; settings: generally
Protocol: To explore how PhotoImmunoNanoTherapy could be regulating the immune system, an analysis of the “sphingolipidome” was studied in tumors and serum collected from treated tumor-bearing mice. As PhotoImmunoNanoTherapy modulated the immune system, and was efficacious in both athymic nude mice and BALB/cJ mice, in depth “sphingolipidomic” studies were performed in athymic nude mice bearing MDA-MB-231 tumors to focus more precisely on mediation of T-cell-independent immunity as well as BALB/cJ mice bearing 410.4 tumors (FIG. 5A-F). […] Intriguingly, an increase in tumor S1P was observed as a function of PhotoImmunoNanoTherapy in both models (FIG. 5D), as well as an increase in the precursor sphingosine in the athymic nude mouse model (MDA-MB-231 tumor) (FIG. 5C). […] Of particular interest, the mass levels of phosphorylated sphingolipid species were much higher in serum than in tumor tissue possibly reflective of a release of phosphorylated sphingolipids in response to PhotoImmunoNanoTherapy. Intriguingly, the increase in the amount of dhS1P was more dramatic than the increase in S1P. In the MDA-MB-231, BxPC-3, and SAOS-2-LM7 models there were a 65%, 79%, and 43% increase in dhS1P, respectively, and these compared with respective increases in S1P of only 29%, 27%, and 10%. […]

CCCCCCCCCCCCCCC[C@@H](O)[C@@H](N)COP(=O)(O)O [dhS1P, dihydrosphingosine-1-phosphate]
Number of significantly regulated genes (isolated MDSC-like cells): 319 | Serum levels measured in the experiments [1]: around 0.005 mg/kg
